For this experiment, the target named is T1, human PAR4 (Homo sapiens, UniProt Q96RI0).
T1 construct: expressed in transfected cells; host or cells: HEK293 PAR4 Clone 1.2A (BMS Arctic ID 383940)
T1 sequence (Q96RI0 18-385): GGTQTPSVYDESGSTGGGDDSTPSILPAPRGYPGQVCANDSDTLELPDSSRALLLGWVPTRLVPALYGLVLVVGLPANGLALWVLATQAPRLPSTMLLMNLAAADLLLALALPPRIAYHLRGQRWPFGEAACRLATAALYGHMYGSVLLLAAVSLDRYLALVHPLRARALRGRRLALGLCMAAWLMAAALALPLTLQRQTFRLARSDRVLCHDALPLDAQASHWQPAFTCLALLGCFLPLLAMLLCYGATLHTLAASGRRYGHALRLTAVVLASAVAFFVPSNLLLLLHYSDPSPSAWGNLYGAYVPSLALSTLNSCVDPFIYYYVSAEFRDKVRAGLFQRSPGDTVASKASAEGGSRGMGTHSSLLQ
Put plainly: PAR4 FLIPR assay: antagonism of agonist-peptide-induced calcium mobilization in PAR4-expressing HEK293 cells. It is filed as cell-based. The settings on record: H-Ala-Phe(4-F)-[…]NH2-induced intracellular calcium mobilization, 11-point curves. On the technique in general: A change in cytosolic calcium serves as a functional read-out for many receptors and channels.

Structures are written as SMILES.

The IC50 is the concentration needed to halve the response being measured. In the case of `COc1cnc2c(-c3nc4ccc(OCCOC(=O)Nc5cccc(C#N)c5)cc4s3)cc(C)cc2n1` [Example 118, 2-((2-(2-methoxy-7-methylquinoxalin-5-yl)benzo[d]thiazol-6-yl)oxy)ethyl (3-cyanophenyl)carbamate], the IC50 worked out at 2.2 nM.
With `COc1cnc2c(-c3nc4c(C)cc(OCCOC(=O)Nc5cnc(Cl)nc5)cc4s3)cc(C)cc2n1` [Example 119, 2-((2-(2-methoxy-7-methylquinoxalin-5-yl)-4-methylbenzo[d]thiazol-6-yl)oxy)ethyl (2-chloropyrimidin-5-yl)carbamate] the figure was 16 nM; with `COc1cnc2c(-c3cc4cc(OC)c(F)cc4o3)cc(C)cc2n1` [Example 120, 5-(6-fluoro-5-methoxybenzofuran-2-yl)-2-methoxy-7-methylquinoxaline], 28 nM; with `COCc1cnc2c(-c3cc4cc(OC)c(F)c(Cl)c4o3)cc(C)cc2n1` [Example 121, 5-(7-chloro-6-fluoro-5-methoxybenzofuran-2-yl)-2-(methoxymethyl)-7-methylquinoxaline], 0.7 nM.
On to `COc1cnc2c(-c3cc4cc(OC)c(F)c(Cl)c4o3)cc(C)cc2n1` [Example 122, 5-(7-chloro-6-fluoro-5-methoxybenzofuran-2-yl)-2-methoxy-7-methylquinoxaline], for which the IC50 came to 3.9 nM.
Take `COc1cnc2c(-c3cc4cc(OCCOC(=O)Nc5ccnc(C)c5)c(F)cc4o3)cc(C)cc2n1` [Example 123, 2-((6-fluoro-2-(2-methoxy-7-methylquinoxalin-5-yl)benzofuran-5-yl)oxy)ethyl (2-methylpyridin-4-yl)carbamate]: the IC50 turned out to be 1.5 nM.
With `COc1cnc2c(-c3cc4cc(OC)c(F)c(Cl)c4o3)cc(CO)cc2n1` [Example 124, (8-(7-chloro-6-fluoro-5-methoxybenzofuran-2-yl)-3-methoxyquinoxalin-6-yl)methanol], the IC50 was 1.8 nM.
With `COc1cnc2c(-c3cc4cc(OC)c(F)cc4o3)cc(CO)cc2n1` [Example 125, (8-(6-fluoro-5-methoxybenzofuran-2-yl)-3-methoxyquinoxalin-6-yl)methanol] the figure was 2 nM; with `COc1cnc2c(-c3cc4cc(OCCOC(=O)Nc5ccnc(C)c5)c(F)cc4o3)cc(CO)cc2n1` [Example 126, 2-((6-fluoro-2-(7-(hydroxymethyl)-2-methoxyquinoxalin-5-yl)benzofuran-5-yl)oxy)ethyl (2-methylpyridin-4-yl)carbamate], 1.2 nM.
With `COc1ccc2nc(-c3cc(CO)cc4nc(OC)cnc34)sc2c1` [Example 127] the figure was 8.3 nM.
For `COc1cnc2c(-c3nc4c(C)cc(OCCOC(=O)Nc5ccc(C)nc5)cc4s3)cc(CO)cc2n1` [Example 128, 2-(2-(7-(hydroxymethyl)-2-methoxyquinoxalin-5-yl)-4-methylbenzo[d]thiazol-6-yloxy)ethyl 6-methylpyridin-3-ylcarbamate], the IC50 was determined as 2.2 nM.
As to `COc1cnc2c(-c3nc4c(C)cc(OCCOC(=O)Nc5ccnc(C)c5)cc4s3)cc(CO)cc2n1` [Example 129, 2-(2-(7-(hydroxymethyl)-2-methoxyquinoxalin-5-yl)-4-methylbenzo[d]thiazol-6-yloxy)ethyl 2-methylpyridin-4-ylcarbamate], the IC50 turned out to be 3.2 nM.
The result for `COc1ccc2c(-c3cc4ccccc4o3)nc(C)cc2n1` [Example 130, 5-(benzofuran-2-yl)-2-methoxy-7-methyl-1,6-naphthyridine] reads 460 nM.
The result for `C=Cc1cnc2c(-c3cc4ccccc4o3)cc(C)cc2n1` [Example 131, 5-(benzofuran-2-yl)-7-methyl-2-vinylquinoxaline] reads 890 nM; that for `CCc1cnc2c(-c3cc4ccccc4o3)cc(C)cc2n1` [Example 132, 5-(benzofuran-2-yl)-2-ethyl-7-methylquinoxaline], 59 nM.
As to `Cc1ccc(-c2cc3ccccc3o2)c2ncc(OC(F)F)nc12` [Example 133, 5-(benzofuran-2-yl)-2-(difluoromethoxy)-8-methylquinoxaline], the IC50 is 570 nM.

These data come from patent US12060347B2 (BRISTOL-MYERS SQUIBB COMPANY, priority 2016, dated 2024).
